What was measured:
duck salad = assay: Test B flood test duck salad; format: in vivo, Heteranthera limosa
Procedure, shortened: (§1)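 Each value is a visual injury score relative to controls, with 10 meaning complete control and 0 no effect. Evaluation took place twelve to sixteen days after the 2-leaf-stage plants were treated and kept in the greenhouse.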

blackgrass = assay: Test B pre/postemergence blackgrass; format: in vivo, Alopecurus myosuroides
Procedure, shortened: (§2)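 Test chemicals in a non-phytotoxic solvent mixture with surfactant were sprayed preemergence onto planted seeds and postemergence onto plants 2 to 18 cm tall (1- to 4-leaf stage). After twelve to sixteen days in a greenhouse, injury was visually rated against untreated controls from 0 (no effect) to 10 (complete control).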

surinam grass = assay: Test B pre/postemergence surinam grass; format: in vivo, Brachiaria decumbens
Procedure, shortened: as §2

bamyardgrass = assay: Test B flood test barnyardgrass; format: in vivo, Echinochloa crus-galli
Procedure, shortened: as §1

sugar beet = assay: Test B pre/postemergence sugar beet; format: in vivo, Beta vulgaris
Procedure, shortened: as §2

corn = assay: Test B pre/postemergence corn; format: in vivo, Zea mays
Procedure, shortened: as §2

soybean = assay: Test B pre/postemergence soybean; format: in vivo, Glycine max
Procedure, shortened: as §2

wild oat = assay: Test B pre/postemergence wild oat; format: in vivo, Avena fatua
Procedure, shortened: as §2

rape = assay: Test B pre/postemergence rape; format: in vivo, Brassica napus
Procedure, shortened: as §2

giant foxtail = assay: Test B pre/postemergence giant foxtail; format: in vivo, Setaria faberii
Procedure, shortened: as §2

velvetleaf = assay: Test B pre/postemergence velvetleaf; format: in vivo, Abutilon theophrasti
Procedure, shortened: as §2

cocklebur = assay: Test B pre/postemergence cocklebur; format: in vivo, Xanthium strumarium
Procedure, shortened: as §2

rice = assay: Test B flood test rice; format: in vivo, Oryza sativa
Procedure, shortened: as §1

bedstraw = assay: Test B pre/postemergence bedstraw; format: in vivo, Galium aparine
Procedure, shortened: as §2

morningglory = assay: Test B pre/postemergence morningglory; format: in vivo, Ipomoea hederacea
Procedure, shortened: as §2

pigweed = assay: Test B pre/postemergence pigweed; format: in vivo, Amaranthus retroflexus
Procedure, shortened: as §2

purple nutsedge = assay: Test B pre/postemergence purple nutsedge; format: in vivo, Cyperus rotundus; settings: Postemergence
Procedure, shortened: as §2

wheat = assay: Test B pre/postemergence wheat; format: in vivo, Triticum aestivum
Procedure, shortened: as §2

smallflower flatsedge = assay: Test B flood test smallflower flatsedge; format: in vivo, Cyperus difformis
Procedure, shortened: as §1

crabgrass = assay: Test B pre/postemergence crabgrass; format: in vivo, Digitaria sanguinalis
Procedure, shortened: as §2

[1] = Rate 62 g/ha, headed Pre-emergence (flood test species), scale 0 to 10 (0 no effect, 10 complete control)
[2] = Rate 125 g/ha, Pre-emergence, flood test species, scale 0 to 10 where 0 is no effect and 10 is complete control
[3] = Rate 250 g/ha, Pre-emergence, flood-test species, scale 0 to 10, 0 is no effect, 10 is complete control
[4] = Rate 500 g/ha, Pre-emergence, flood test species, scale 0 to 10 (0 no effect, 10 complete control)
[5] = Preemergence, Rate 62 g/ha, scale of 0 to 10 where 0 is no effect and 10 is complete control
[6] = Preemergence, Rate 250 g/ha, scale of 0 to 10 where 0 is no effect and 10 is complete control
[7] = Preemergence, Rate 500 g/ha, scale of 0 to 10 where 0 is no effect and 10 is complete control
[8] = Rate 62 g/ha, Postemergence, scale of 0 to 10 where 0 is no effect and 10 is complete control
[9] = Rate 125 g/ha, Postemergence, scale 0 to 10
[10] = Rate 125 g/ha, Preemergence, scale of 0 to 10 where 0 is no effect and 10 is complete control
[11] = Rate 500 g/ha, Postemergence, scale 0 to 10, 0 no effect, 10 complete control

## COCCOCn1c(=O)on(C(=O)N(c2ccc(F)cc2)C(C)C)c1=O [Compound 258]
Duck salad; [1]
  Ducksalad plant response rating: 0
Duck salad; [2]
  Ducksalad plant response rating: 0
Duck salad; [3]
  Ducksalad plant response rating: 0
Duck salad; [4]
  Ducksalad plant response rating: 0
blackgrass; [5]
  Blackgrass plant response rating: 6
blackgrass; [6]
  Blackgrass plant response rating: 8
blackgrass; [7]
  Plant response rating, Blackgrass: 8
blackgrass; [8]
  Blackgrass plant response rating: 1
blackgrass; [9]
  Blackgrass plant response rating: 5
blackgrass; [10]
  Blackgrass plant response rating: 8
blackgrass; Rate 250 g/ha, Postemergence
  Plant response rating (0 to 10; 0 is no effect, 10 is complete control), Blackgrass: 7
blackgrass; [11]
  Blackgrass plant response rating: 7
Surinam grass; [5]
  B. signalgrass plant response rating: 0
Surinam grass; [6]
  B. signalgrass plant response rating: 7
Surinam grass; [7]
  Plant response rating, B. signalgrass: 8
Surinam grass; [8]
  B. signalgrass plant response rating: 0
Surinam grass; Rate 125 g/ha, Postemergence, scale 0 (no effect) to 10 (complete control)
  B. signalgrass plant response rating: 0
Surinam grass; [10]
  B. signalgrass plant response rating: 4
Surinam grass; Rate 250 g/ha, Postemergence
  Plant response rating (0 to 10; 0 is no effect, 10 is complete control), B. signalgrass: 4
Surinam grass; [11]
  B. signalgrass plant response rating: 8
bamyardgrass; [1]
  Barnyardgrass plant response rating: 0
bamyardgrass; [2]
  Barnyardgrass plant response rating: 0
bamyardgrass; [3]
  Barnyardgrass plant response rating: 0
bamyardgrass; [4]
  Barnyardgrass plant response rating: 0
Sugar beet; [5]
  Sugarbeets plant response rating: 0
Sugar beet; [6]
  Sugarbeets plant response rating: 5
Sugar beet; [7]
  Plant response rating, Sugarbeets: 7
Sugar beet; [10]
  Sugarbeets plant response rating: 2
Sugar beet; [11]
  Sugarbeets plant response rating: 2
corn; [5]
  Corn plant response rating: 0
corn; [6]
  Corn plant response rating: 3
corn; [7]
  Plant response rating, Corn: 5
corn; [8]
  Corn plant response rating: 0
corn; [9]
  Corn plant response rating: 0
corn; [10]
  Corn plant response rating: 2
corn; Rate 250 g/ha, Postemergence
  Plant response rating (0 to 10; 0 is no effect, 10 is complete control), Corn: 0
corn; [11]
  Corn plant response rating: 0
soybean; [5]
  Soybean plant response rating: 0
soybean; [6]
  Soybean plant response rating: 2
soybean; [7]
  Plant response rating, Soybean: 3
soybean; [10]
  Soybean plant response rating: 0
soybean; [11]
  Soybean plant response rating: 6
Wild oat; [5]
  Wild oats plant response rating: 2
Wild oat; [6]
  Wild oats plant response rating: 5
Wild oat; [7]
  Plant response rating, Wild oats: 6
Wild oat; [10]
  Wild oats plant response rating: 4
Wild oat; [11]
  Wild oats plant response rating: 3
rape; [5]
  Rape plant response rating: 0
rape; [6]
  Rape plant response rating: 5
rape; [7]
  Plant response rating, Rape: 7
rape; [10]
  Rape plant response rating: 1
rape; Rate 250 g/ha, Postemergence
  Plant response rating (0 to 10; 0 is no effect, 10 is complete control), Rape: 0
rape; [11]
  Rape plant response rating: 3
Giant foxtail; [5]
  Giant foxtail plant response rating: 8
Giant foxtail; [6]
  Giant foxtail plant response rating: 10
Giant foxtail; [7]
  Plant response rating, Giant foxtail: 10
Giant foxtail; [10]
  Giant foxtail plant response rating: 9
Giant foxtail; Rate 250 g/ha, Postemergence
  Plant response rating (0 to 10; 0 is no effect, 10 is complete control), Giant foxtail: 4
Giant foxtail; [11]
  Giant foxtail plant response rating: 7
velvetleaf; [5]
  Velvetleaf plant response rating: 2
velvetleaf; [6]
  Velvetleaf plant response rating: 5
velvetleaf; [7]
  Plant response rating, Velvetleaf: 7
velvetleaf; [10]
  Velvetleaf plant response rating: 5
velvetleaf; [11]
  Velvetleaf plant response rating: 0
cocklebur; [5]
  Cocklebur plant response rating: 0
cocklebur; [6]
  Cocklebur plant response rating: 0
cocklebur; [7]
  Plant response rating, Cocklebur: 0
cocklebur; [8]
  Cocklebur plant response rating: 0
cocklebur; [9]
  Cocklebur plant response rating: 0
cocklebur; [10]
  Cocklebur plant response rating: 0
cocklebur; Rate 250 g/ha, Postemergence
  Plant response rating (0 to 10; 0 is no effect, 10 is complete control), Cocklebur: 0
cocklebur; [11]
  Cocklebur plant response rating: 1
rice; [1]
  Rice plant response rating: 0
rice; [2]
  Rice plant response rating: 0
rice; [3]
  Rice plant response rating: 0
rice; [4]
  Rice plant response rating: 0
bedstraw; [5]
  Bedstraw plant response rating: 0
bedstraw; [6]
  Bedstraw plant response rating: 3
bedstraw; [7]
  Plant response rating, Bedstraw: 10
bedstraw; [8]
  Bedstraw plant response rating: 2
bedstraw; [9]
  Bedstraw plant response rating: 4
bedstraw; [10]
  Bedstraw plant response rating: 3
bedstraw; Rate 250 g/ha, Postemergence
  Plant response rating (0 to 10; 0 is no effect, 10 is complete control), Bedstraw: 7
bedstraw; [11]
  Bedstraw plant response rating: 8
morningglory; [5]
  Morningglory plant response rating: 0
morningglory; [6]
  Morningglory plant response rating: 0
morningglory; [7]
  Plant response rating, Morningglory: 0
morningglory; [10]
  Morningglory plant response rating: 0
morningglory; Rate 250 g/ha, Postemergence
  Plant response rating (0 to 10; 0 is no effect, 10 is complete control), Morningglory: 7
morningglory; [11]
  Morningglory plant response rating: 10
pigweed; [5]
  Redroot pigweed plant response rating: 0
pigweed; [6]
  Redroot pigweed plant response rating: 7
pigweed; [7]
  Plant response rating, Redroot pigweed: 10
pigweed; [10]
  Redroot pigweed plant response rating: 2
pigweed; Rate 250 g/ha, Postemergence
  Plant response rating (0 to 10; 0 is no effect, 10 is complete control), Redroot pigweed: 2
pigweed; [11]
  Redroot pigweed plant response rating: 3
Purple nutsedge; Rate 250 g/ha
  Plant response rating (0 to 10; 0 is no effect, 10 is complete control), Nutsedge: 0
Purple nutsedge; Rate 500 g/ha, scale 0 to 10, 0 no effect, 10 complete control
  Nutsedge plant response rating: 0
wheat; [5]
  Wheat plant response rating: 0
wheat; [6]
  Wheat plant response rating: 4
wheat; [7]
  Plant response rating, Wheat: 7
wheat; [10]
  Wheat plant response rating: 4
wheat; [11]
  Wheat plant response rating: 6
Smallflower flatsedge; [1]
  S. Flatsedge plant response rating: 0
Smallflower flatsedge; [2]
  S. Flatsedge plant response rating: 0
Smallflower flatsedge; [3]
  S. Flatsedge plant response rating: 0
Smallflower flatsedge; [4]
  S. Flatsedge plant response rating: 0
crabgrass; [5]
  Crabgrass plant response rating: 3
crabgrass; [6]
  Crabgrass plant response rating: 9
crabgrass; [7]
  Plant response rating, Crabgrass: 10
crabgrass; [10]
  Crabgrass plant response rating: 7
crabgrass; Rate 250 g/ha, Postemergence
  Plant response rating (0 to 10; 0 is no effect, 10 is complete control), Crabgrass: 2
crabgrass; [11]
  Crabgrass plant response rating: 5

— patent publication US6737383B1, “Herbicidal oxadiazolidines” (priority 1999, dated 2004)
